Consider twelve molecules from PubChem BioAssay (NCI).

Values joined by “and” are separate entries in the source; they are usually repeats but may differ in a detail not shown here. Equal entries are not always repeated.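 Test compounds were applied to cells in 96-well plates for 48 hours at 5 doses. GI50 marks 50% less growth. TGI is the concentration that stops growth completely.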

Common to all, as to assay: NCI anticancer screen, dose series, 48 h
The subject of test [1] is MALME-3M melanoma.
For test [2], the system named is UACC-62 melanoma.
Test [3] deals with SW-620 colon.
The test system of test [4] is ACHN renal.
The test system of test [5] is HL-60(TB) leukemia.
Test [6] has as its system A549 NSCLC.
Test [7] deals with U251 CNS.
The test system of test [8] is IGROV1 ovarian.
Test [9] relates to OVCAR-5 ovarian.
In test [10] the test system is HCT-15 colon.

On to `COC(=O)C1CCC2(CC1)NC(=O)NC2=O` (centres undefined), for which the TGI in test [1], in test [2], in test [3], in [4], in test [5] and in [6] was greater than 100 µM each time. Further, the TGI in [7], in test [8] and in test [9] was greater than 100 µM each time.

Consider `COc1ccc(N2CCN(CC(=O)N3CCN(c4nnc(-c5ccc(Cl)cc5)c(-c5ccc(Cl)cc5)n4)CC3)CC2)cc1`, for which the GI50 in [10] is 6.8 µM; in test [3], 46.3 µM; in [4] it was 6.42 µM; in test [5] it was 14.3 µM; in test [6] it was 11.8 µM; in [7], 10.6 µM. In addition, the GI50 in test [8] is 16 µM; in test [9], greater than 100 µM. Moreover, the TGI in [10] is greater than 100 µM; in [3], greater than 100 µM; in test [4] it was 55.6 µM; in test [5], greater than 100 µM; in [6], greater than 100 µM; in test [7], greater than 100 µM. Also, the TGI in test [8] and in [9] was greater than 100 µM each time.

For the molecule `CN(C)CCCn1c2c(c3ccc([N+](=O)[O-])cc3c1=O)C(=O)c1ccccc1-2`, the GI50 in test [1] is 7.86 µM; in test [10], 10.6 µM; in [2] it was 7130 nM; in test [3], 5.7 µM; in [4] it was 4.54 µM; in test [6], 17.5 µM. Moreover, the GI50 in test [7] was 6.36 µM; in [8], 4.98 µM; in test [9] it was 15.3 µM. Further, the TGI in test [1] is greater than 100 µM; in test [10], 35.8 µM; in test [2], 24.6 µM; in test [3], greater than 100 µM; in test [4] it was 17.8 µM; in [6] it was 46.1 µM. The TGI in [7] was 27.7 µM; in test [8] it was greater than 100 µM; in test [9], 49 µM.

For the molecule `COc1cccc2c1C(=N)c1c(O)c3c(c(O)c1C2=O)C[C@@](O)(C(C)=O)C[C@@H]3OC1CC(N)C(O)C(C)O1` (some centres undefined), the TGI is 1.83 µM and 5.14 µM and 2.21 µM in test [1]; 28 µM and 32.8 µM in test [10]; 1.61 µM and 1.9 µM and 2.61 µM in [2]; 4.39 µM and 8.73 µM and 10.5 µM in [3]; 0.287 µM and 0.192 µM in test [5]; 0.926 µM and 1.46 µM and 1.01 µM in [6]. Moreover, the TGI in test [8] was 6.39 µM and 9.25 µM. For the same molecule, the GI50 in [4] was 0.472 µM.

On to `COc1ccc(C2CC(c3cccc(Nc4ccnc5cc(Cl)ccc45)c3)=NN2c2ccc(Cl)cc2)cc1` (centres undefined), for which the GI50 in test [1] was 22.7 µM; in test [10], 2.3 µM; in test [2] it was 601 nM; in test [3] it was 0.533 µM; in test [4] it was 4.63 µM; in test [5], 4.78 µM. In addition, the results for the GI50 in test [6], in test [8] and in test [9] were 4.7 µM, 18.8 µM and 15.6 µM, respectively. Also, the TGI in test [1] stood at 59.5 µM; in [10], 18.7 µM; in test [2] it was 13.3 µM; in test [3] it was 21.6 µM; in test [4] it was 90.6 µM; in [5], 26.9 µM. Further, the TGI in test [6] was greater than 100 µM; in test [8], greater than 100 µM; in test [9], 87 µM.

Consider `COc1cc(C2C(C(=O)Nc3ccc(Cl)c(Cl)c3)=C(C)NC(C)=C2C(=O)Nc2ccc(Cl)c(Cl)c2)ccc1O`, for which the TGI in test [1] turned out to be 27.3 µM; in test [3], 29 µM; in test [4], 32.9 µM; in test [5] it was 23.3 µM; in [6], 31.5 µM; in [7], 34.7 µM. Moreover, the figures for the TGI in test [8] and in [9] were 42 µM and 38.8 µM, respectively.

`O=C1c2ccccc2CC1C1(O)C(=O)Nc2c(Cl)cc(Cl)cc21` (centres undefined): the TGI was greater than 100 µM in test [1]; greater than 100 µM in [10]; greater than 100 µM in test [3]; greater than 100 µM in test [4]; 96.4 µM in test [5]; greater than 100 µM in test [6]. Moreover, the TGI in test [7] and in test [9] was greater than 100 µM throughout.

On to `COc1ccc(/C=C(\NC(=O)c2ccccc2)c2nc3ccccc3[nH]2)cc1`, for which the TGI in [1], in test [10], in [2], in test [3], in [4] and in [6] was greater than 100 µM throughout. Further, the TGI in test [7] is greater than 100 µM; in test [8] it was greater than 100 µM; in test [9], 84.5 µM.

For the molecule `O=S(O)CCCSSCCCCSSCCCS(=O)O`, the TGI in test [1], in [10], in [2], in test [3], in [4] and in test [6] was greater than 100 µM in each case. Moreover, the TGI in test [7], in [8] and in test [9] was greater than 100 µM throughout.

Turning to `CCCCCCn1c(=N)n(CC(O)COc2cccc(C)c2)c2ccccc21` (centres undefined), the GI50 in test [1] is 1.92 µM; in test [10], 2.12 µM; in test [2], 1920 nM; in test [3] it was 1.82 µM; in test [4] it was 2.02 µM; in [5], 1.88 µM. Further, the values for the GI50 in test [6], in [8] and in [9] were 3.47 µM, 2.78 µM and 4.01 µM, respectively. Besides, the TGI in test [1] was 3.66 µM; in test [10], 5.34 µM; in [2], 4.97 µM; in test [3], 4.04 µM; in [4], 4.25 µM; in test [5], 3.79 µM. Further, the TGI in [6] stood at 13.3 µM; in [8], 10.2 µM; in test [9] it was 15.1 µM.

On to `O=C1OC2C(O)COC2(OCc2c[nH]c3ccccc23)C1O` (centres undefined) (tested in a mixture with another compound), for which the TGI in test [1], in test [10], in test [2], in test [3], in test [5] and in test [6] was greater than 100 µM each time. For the same molecule, the TGI in test [7], in [8] and in [9] was greater than 100 µM in each case.

Turning to `COC(=O)c1c(OC(=O)c2ccccc2)noc1CC(=O)OC1C=CCCC1` (centres undefined), the TGI in test [1], in test [10], in test [2], in test [3], in [4] and in test [5] was greater than 100 µM each time. For the same molecule, the TGI in test [6], in [7] and in [8] was greater than 100 µM each time.
